Source: the supplement of paper PMC10920090

Legend:
MDA-MB-231 [1] = test: drug sensitivity score (DSS), cell viability CellTiter-Glo; higher = more sensitive; extreme values may be limits of the assay; conditions: 72 h
MDA-MB-231 [2] = test: drug sensitivity score (DSS), cytotoxicity CellTox Green; higher = more cytotoxic; extreme values may be limits of the assay; conditions: 72 h
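Wherever drug sensitivity score (DSS), cytotoxicity CellTox Green is given: DSS summarises each dose–response curve by combining IC50, EC50, maximal inhibition and efficacy across drug concentrations.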

Row | Compound | drug sensitivity score (MDA-MB-231 [1]; shRNA: shPPFIA1_1) | drug sensitivity score (MDA-MB-231 [1]; shRNA: shScramble) | drug sensitivity score (MDA-MB-231 [2]; shRNA: shPPFIA1_1) | drug sensitivity score (MDA-MB-231 [2]; shRNA: shScramble)
1 | COc1nc(N)nc2c1ncn2[C@@H]1O[C@H](CO)[C@@H](O)[C@@H]1O [Nelarabine] | 0 DSS | 0 DSS | 0 DSS | 0 DSS
2 | CCOc1cc2ncc(C#N)c(Nc3ccc(OCc4ccccn4)c(Cl)c3)c2cc1NC(=O)/C=C/CN(C)C [Neratinib] | 6.3 DSS | 8.3 DSS | 0.2 DSS | 0 DSS
3 | Cc1cn(-c2cc(NC(=O)c3ccc(C)c(Nc4nccc(-c5cccnc5)n4)c3)cc(C(F)(F)F)c2)cn1 [Nilotinib] | 0 DSS | 3.8 DSS | 4.5 DSS | 0.2 DSS
4 | CC1(C)NC(=O)N(c2ccc([N+](=O)[O-])c(C(F)(F)F)c2)C1=O [Nilutamide] | 0 DSS | 0 DSS | 0 DSS | 0 DSS
5 | COC(=O)c1ccc2c(c1)NC(=O)/C2=C(\Nc1ccc(N(C)C(=O)CN2CCN(C)CC2)cc1)c1ccccc1 [Nintedanib] | 0 DSS | 8.1 DSS | 1.1 DSS | 6.7 DSS
6 | NC(=O)c1cccc2cn(-c3ccc([C@@H]4CCCNC4)cc3)nc12 [Niraparib] | 2.8 DSS | 1.9 DSS | 0 DSS | 0 DSS
7 | COc1ccc(C2=N[C@@H](c3ccc(Cl)cc3)[C@@H](c3ccc(Cl)cc3)N2C(=O)N2CCNC(=O)C2)c(OC(C)C)c1 [Nutlin-3] | 0 DSS | 0 DSS | 0 DSS | 0 DSS
8 | COc1cccc2cc(-c3nc([C@H]4CC[C@H](C(=O)O)CC4)n4ncnc(N)c34)[nH]c12 [OSI-027] | 0 DSS | 2.9 DSS | 0 DSS | 0 DSS
9 | O=C(Nc1ccc(OC(F)(F)F)cc1)c1sccc1NCc1ccnc2ccccc12 [OSI-930] | 4.5 DSS | 8 DSS | 0 DSS | 0.9 DSS
10 | CC(=O)c1cnc2ccc(-c3cc(Cl)c(O)c(Cl)c3)nc2c1N[C@H]1CC[C@H](CN(C)C)CC1 [OTSSP167] | 22.4 DSS | 9.1 DSS | 0 DSS | 0.2 DSS
11 | Cc1sc2c(c1C)C(c1ccc(Cl)cc1)=N[C@@H](CC(=O)Nc1ccc(O)cc1)c1nnc(C)n1-2 [OTX015] | 0 DSS | 10.2 DSS | 0 DSS | 0 DSS
12 | COC1=CC(c2cc3ccccc3[nH]2)=N/C1=C\c1[nH]c(C)cc1C [Obatoclax] | 0 DSS | 0 DSS | 0 DSS | 0 DSS
13 | O=C(c1cc(Cc2n[nH]c(=O)c3ccccc23)ccc1F)N1CCN(C(=O)C2CC2)CC1 [Olaparib] | 0.1 DSS | 0.8 DSS | 0 DSS | 0 DSS
14 | COC(=O)C[C@](O)(CCCC(C)(C)O)C(=O)O[C@@H]1C(OC)=C[C@]23CCCN2CCc2cc4c(cc2[C@H]13)OCO4 [Omacetaxine] | 11.2 DSS | 22.9 DSS | 11.8 DSS | 18.4 DSS
15 | COc1ncc(-c2ccc3nccc(-c4ccnnc4)c3c2)cc1NS(=O)(=O)c1ccc(F)cc1F [Omipalisib] | 0 DSS | 10.9 DSS | 0 DSS | 0 DSS
16 | CC(C)c1cc(C(=O)N2Cc3ccc(CN4CCN(C)CC4)cc3C2)c(O)cc1O [Onalespib] | 13.6 DSS | 10.6 DSS | 0 DSS | 2.6 DSS

Row | Compound | drug sensitivity score (MDA-MB-231 [1]; shRNA: shPPFIA1_1) | drug sensitivity score (MDA-MB-231 [1]; shRNA: shScramble) | drug sensitivity score (MDA-MB-231 [2]; shRNA: shPPFIA1_1) | drug sensitivity score (MDA-MB-231 [2]; shRNA: shScramble)
17 | COC[C@H](NC(=O)c1cnc(C)s1)C(=O)N[C@@H](COC)C(=O)N[C@@H](Cc1ccccc1)C(=O)[C@@]1(C)CO1 [Oprozomib] | 11.4 DSS | 11.5 DSS | 17 DSS | 16.8 DSS
18 | Cc1[nH]c(/C=C2\C(=O)Nc3ccccc32)c(C)c1CCC(=O)O [Orantinib] | 0 DSS | 0 DSS | 10.8 DSS | 16.2 DSS
19 | CNC(=O)c1ccc2cc([C@@]3(O)CCn4cncc43)ccc2c1 [Orteronel] | 0 DSS | 0 DSS | 0 DSS | 0 DSS
20 | C=CC(=O)Nc1cc(Nc2nccc(-c3cn(C)c4ccccc34)n2)c(OC)cc1N(C)CCN(C)C [Osimertinib] | 1.2 DSS | 3.9 DSS | 0 DSS | 0 DSS
21 | O=C(O)C(=O)O.[NH-][C@@H]1CCCC[C@H]1[NH-].[Pt+2] [Oxaliplatin] | 0 DSS | 2 DSS | 0 DSS | 0 DSS
22 | C=CCc1cccc(/C=N/NC(=O)CN2CCN(Cc3ccccc3)CC2)c1O [PAC-1] | 2.7 DSS | 3.8 DSS | 0 DSS | 0 DSS
23 | O=C(Nc1cccnc1)N1CCC(Cc2cccc(Oc3ccc(C(F)(F)F)cn3)c2)CC1 [PF-3845] | 4.3 DSS | 4 DSS | 4 DSS | 0.3 DSS
24 | COc1ccccc1S(=O)(=O)Nc1ccc2c(c1)CN(C)C(=O)N2 [PFI-1] | 1.4 DSS | 4.4 DSS | 0 DSS | 0 DSS
25 | CN1CCN(c2cc(C(=O)Nc3ccc4c(c3)-c3c(c(C(N)=O)nn3-c3ccc(F)cc3)CC4)c(Cl)cn2)CC1 [PHA 408] | 4.2 DSS | 6.3 DSS | 5.2 DSS | 6.9 DSS
26 | CCn1nnc2c(N3CCOCC3)nc(-c3ccc(NC(=O)Nc4ccc(C(=O)N5CCN(C)CC5)cc4)cc3)nc21 [PKI-402] | 1.1 DSS | 9.4 DSS | 0 DSS | 0 DSS
27 | O=C(Nc1cc(Cl)cc2c1[nH]c1cnccc12)c1cccnc1 [PS-1145] | 0.9 DSS | 0.9 DSS | 0 DSS | 0.3 DSS
28 | COc1cc(Br)c(Nc2nc(-c3c(C)nc4ncccn34)cs2)c(Br)c1 [PTC-209] | 0 DSS | 7.5 DSS | 0 DSS | 0 DSS
29 | CC(=O)O[C@H]1C(=O)[C@@]2(C)[C@H]([C@H](OC(=O)c3ccccc3)[C@]3(O)C[C@H](OC(=O)[C@H](O)[C@@H](NC(=O)c4ccccc4)c4ccccc4)C(C)=C1C3(C)C)[C@]1(OC(C)=O)CO[C@@H]1C[C@@H]2O [Paclitaxel] | 0 DSS | 12.8 DSS | 8.8 DSS | 9.2 DSS
30 | C1=N/C2=N/c3ccc(OCCN4CCCC4)c(c3)COC/C=C/COCc3cccc(c3)C(=C1)N2 [Pacritinib] | 2.4 DSS | 6.2 DSS | 1.6 DSS | 0.6 DSS
31 | CC(=O)c1c(C)c2cnc(Nc3ccc(N4CCNCC4)cn3)nc2n(C2CCCC2)c1=O [Palbociclib] | 0 DSS | 2.4 DSS | 0 DSS | 0 DSS
32 | COc1ccc(COc2cc3oc(=O)c4cc(C(C)O)ccc4c3cc2OC)cc1 (stereo not drawn) [Palomid-529] | 0 DSS | 0 DSS | 0 DSS | 0 DSS
